Values of other authors in paper PMC11859340, “The Therapeutic Potential of Spirooxindoles in Cancer: A Focus on p53–MDM2 Modulation” (Pharmaceuticals, 2025).
Like-named read-outs stand apart in the source and are kept apart here.

What was measured:
[1] = test system: MCF7; design: method as in PMID 29210587; conditions: at 20 μM, MTT
[2] = test system: ZR-75-1 (wild-type p53); design: method as in PMID 29210587; conditions: at 20 μM, MTT
[3] = test system: BT-474 (mutated-type p53); design: method as in PMID 29210587; conditions: at 20 μM, MTT
[4] = test system: MDM2; design: method as in PMID 29210587; conditions: at 20 μM, HTRF method
[5] = test system: lung A549; design: method as in PMID 31047751; conditions: CCK-8
[6] = test system: breast MCF7; design: method as in PMID 31047751; conditions: CCK-8
[7] = test system: colon HCT116; design: method as in PMID 31047751; conditions: CCK-8
[8] = molecular target: MDM2; design: method as in PMID 31047751; conditions: fluorescence polarization assay; read-out: Ki, MDM2 inhibitory effect
[9] = test system: HCT116 (colon); design: method as in PMID 30802707; conditions: MTT; read-out: IC50 against HCT116
[10] = test system: HepG2 (liver); design: method as in PMID 30802707; conditions: MTT; read-out: IC50 against HepG2
[11] = test system: PC-3 (prostate); design: method as in PMID 30802707; conditions: MTT; read-out: IC50 against PC-3
[12] = test system: HCT116 (colon); design: method as in PMID 30508794; conditions: MTT; read-out: IC50 against HCT116
[13] = test system: HepG2 (liver); design: method as in PMID 30508794; conditions: MTT; read-out: IC50 against HepG2
[14] = design: method as in PMID 30508794; conditions: MTT; read-out: IC50 against PC3
[15] = test system: HeLa (cervical); design: method as in PMID 37935912; conditions: SRB; read-out: IC50 against HeLa
[16] = test system: A549 (lung); design: method as in doi:10.1080/10426507.2020.1723590; conditions: MTT; read-out: IC50 against A549
[17] = test system: HEK293T (embryonic kidney); design: method as in doi:10.1080/10426507.2020.1723590; conditions: MTT; read-out: IC50 against HEK293T
[18] = test system: A2870s; design: method as in PMID 28027532; conditions: MTT; read-out: IC50 against A2870s
[19] = test system: A2870T “ovarian”; design: method as in PMID 28027532; conditions: MTT; read-out: IC50 against A2870T
[20] = test system: CT26; design: method as in PMID 28027532; conditions: MTT; read-out: IC50 against CT26
[21] = test system: HCT116 “colon”; design: method as in PMID 28027532; conditions: MTT; read-out: IC50 against HCT116
[22] = test system: A549 “lung”; design: method as in PMID 28027532; conditions: MTT; read-out: IC50 against A549
[23] = test system: MCF7 “breast”; design: method as in PMID 28027532; conditions: MTT; read-out: IC50 against MCF7
[24] = test system: H1975 “lung”; design: method as in PMID 28027532; conditions: MTT; read-out: IC50 against H1975
[25] = test system: VERO-B (normal) cells; conditions: read-out: IC50 against VERO-B; MTT, normal cells
[26] = test system: transplanted cancer (lung cancer); design: method as in PMID 32738990; conditions: 100, 200, 400 mg/kg

For C[C@H]1CN(C(=O)OC(C)(C)C)[C@@]2(C(=O)Nc3cc(Cl)ccc32)[C@@H]([N+](=O)[O-])[C@@H]1c1ccc(Cl)cc1, the “% inhibition, MCF7” value [1] is listed as 93.03%, the “% inhibition, ZR-75-1” value [2] is listed as 82.28% and the “% inhibition, BT-474” value [3] is listed as 50.00%. For the same compound, the “inhibitory activity against MDM2” value [4] was 84.86.
In the case of O=C(C1=CCC(c2ccc(Br)cc2)C2(S1)C(=O)Nc1ccccc12)c1ccccc1 (centres unmarked) [150 (R^1 = H, R^2 = Ph, R^3 = 4-BrC6H4)], the IC50 ([5]; read-out: IC50 against A549) is given as 2.1 µM, the “% inhibition, A549” value ([5]; at 10 μM) is given as 75.1% and the IC50 ([6]; read-out: IC50 against MCF7) is given as 6.8 µM. The “% inhibition, MCF7” value ([6]; at 10 μM) was 69.4%, the IC50 ([7]; read-out: IC50 against HCT116) was 1.7 µM and the “% inhibition, HCT116” value ([7]; at 10 μM) was 91.9%. The Ki [8] was 43.8 µM.
For N.N.[Cl][Pt][Cl] [cisplatin, reference compound], the IC50 [9] is given as 12.6 ± 2 µM, the IC50 [10] is given as 5.5 ± 1 µM and the IC50 [11] is given as 5 ± 0.5 µM. The IC50 [12] was 12.6 ± 0.5 µM, the IC50 [13] was 5.5 ± 0.3 µM and the IC50 [14] was 5 ± 0.56 µM. The IC50 [15] was 2 ± 0.3 µM, the IC50 [16] was 44.1 ± 3.9 µM and the IC50 [17] was 12.4 ± 3.9 µM. The IC50 [18] was 20.9 µM, the IC50 [19] was 27.3 µM and the IC50 [20] was 23.7 µM. The IC50 [21] was 17.4 µM, the IC50 [22] was 15.6 µM and the IC50 [23] was 7.8 µM. For the same compound, the IC50 [24] was 9.7 µM and the IC50 [25] was 5 ± 0.2 µM.
For CN1C(=O)C2(C(C#N)=C(N)Oc3cc4oc(-c5ccccc5)cc(=O)c4c(O)c32)c2cc(Br)ccc21 (centres unmarked) [compound 128], the “transplanted cancer in mice” value [26] is listed as “Inhibition of transplanted cancer in mice”.
